Results: patent US20250002507A1, “7,8-DIHYDRO-5H-1,6-NAPHTHYRIDINE DERIVATIVES AS POSITIVE ALLOSTERIC MODULATORS OF THE MUSCARINIC ACETYLCHOLINE RECEPTOR M4 FOR TREATING NEUROLOGICAL AND PSYCHIATRIC DISORDERS” (Vanderbilt University, priority 2021, published 2025)
pEC50: −log10 of the molar value.

Target: T1, Human M4 (Homo sapiens, UniProt P08173)
T1 construct: expressed in transfected cells
T1 sequence (P08173 1-479): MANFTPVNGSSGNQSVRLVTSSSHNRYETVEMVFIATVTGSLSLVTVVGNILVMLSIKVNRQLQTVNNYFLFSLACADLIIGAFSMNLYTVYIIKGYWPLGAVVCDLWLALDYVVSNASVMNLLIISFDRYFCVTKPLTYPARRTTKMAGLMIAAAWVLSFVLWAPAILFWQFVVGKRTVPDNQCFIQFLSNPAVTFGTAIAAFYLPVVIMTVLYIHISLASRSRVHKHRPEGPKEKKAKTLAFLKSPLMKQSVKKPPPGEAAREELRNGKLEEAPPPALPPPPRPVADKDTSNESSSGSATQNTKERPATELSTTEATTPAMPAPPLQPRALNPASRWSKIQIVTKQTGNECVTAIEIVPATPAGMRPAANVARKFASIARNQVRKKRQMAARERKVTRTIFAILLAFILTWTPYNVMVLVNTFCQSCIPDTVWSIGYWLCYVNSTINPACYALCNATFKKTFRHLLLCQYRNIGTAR
Test: mAChR M4 cell-based functional assay (calcium flux, potentiation of EC20 acetylcholine response), hM4-Gqi5 CHO-K1 cells
Conditions: Table 3; for Emax at 30 µM: CHO-K1, Human M4, % ACh maximum at 30 μM, read-out: Emax (% ACh maximum at 30 μM); for pEC50: potentiation of EC20 acetylcholine response, calcium flux, CHO-K1 cells, read-out: Human M4 EC50
Procedure, shortened: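 CHO-K1 cells stably expressing human M4 with chimeric Gqi5, loaded with Fluo-4 AM 50 min at 37 °C; calcium flux read by FDSS. 11-point 1:3 compound curves added, then EC20 acetylcholine at 144 s; potentiation of the EC20 response fitted by four-parameter logistic to give EC50 and Emax.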

| Structure (SMILES) | Emax at 30 µM [%] | pEC50 |
| --- | --- | --- |
| COc1ccc(-c2cnc3c(c2)CN(c2nn4c(C(F)(F)F)nnc4c(C)c2C)CC3)cn1 [Compound 258, 6-(7,8-dimethyl-3-(trifluoromethyl)-[1,2,4]triazolo[4,3-b]pyridazin-6-yl)-3-(6-methoxypyridin-3-yl)-5,6,7,8-tetrahydro-1,6-naphthyridine] | 77 | 6.24 |
| Cc1c(N2CCc3ncc(-c4ccc(C(F)(F)F)nc4)cc3C2)nn2c(C(F)(F)F)nnc2c1C [Compound 259, 6-(7,8-dimethyl-3-(trifluoromethyl)-[1,2,4]triazolo[4,3-b]pyridazin-6-yl)-3-(6-(trifluoromethyl)pyridin-3-yl)-5,6,7,8-tetrahydro-1,6-naphthyridine] | 55 | 5.84 |
| Cc1c(N2CCc3ncc(OCC4COCCO4)cc3C2)nn2cnnc2c1C (stereo not shown) [Compound 260, 3-((1,4-dioxan-2-yl)methoxy)-6-(7,8-dimethyl-[1,2,4]triazolo[4,3-b]pyridazin-6-yl)-5,6,7,8-tetrahydro-1,6-naphthyridine] | 84 | 5.11 |
| Cc1c(N2CCc3ncc(OCC4CC4)cc3C2)nn2cnnc2c1C [Compound 261, 3-(cyclopropylmethoxy)-6-(7,8-dimethyl-[1,2,4]triazolo[4,3-b]pyridazin-6-yl)-5,6,7,8-tetrahydro-1,6-naphthyridine] | 90 | 6.48 |
| Cc1c(N2CCc3ncc(OCC4COC4)cc3C2)nn2cnnc2c1C [Compound 262, 6-(7,8-dimethyl-[1,2,4]triazolo[4,3-b]pyridazin-6-yl)-3-(oxetan-3-ylmethoxy)-5,6,7,8-tetrahydro-1,6-naphthyridine] | 82 | 5.80 |
| Cc1c(N2CCc3ncc(OCC4CC(F)(F)C4)cc3C2)nn2cnnc2c1C [Compound 263, 3-((3,3-difluorocyclobutyl)methoxy)-6-(7,8-dimethyl-[1,2,4]triazolo[4,3-b]pyridazin-6-yl)-5,6,7,8-tetrahydro-1,6-naphthyridine] | 79 | 6.30 |
| Cc1c(N2CCc3ncc(OCC4CCOC4)cc3C2)nn2cnnc2c1C (stereo not shown) [Compound 264, 6-(7,8-dimethyl-[1,2,4]triazolo[4,3-b]pyridazin-6-yl)-3-((tetrahydrofuran-3-yl)methoxy)-5,6,7,8-tetrahydro-1,6-naphthyridine] | 82 | 5.91 |
| Cc1c(N2CCc3ncc(OCc4ccccc4)cc3C2)nn2cnnc2c1C [Compound 265, 3-(benzyloxy)-6-(7,8-dimethyl-[1,2,4]triazolo[4,3-b]pyridazin-6-yl)-5,6,7,8-tetrahydro-1,6-naphthyridine] | 74 | 6.14 |
| Cc1c(N2CCc3ncc(OCC4CC4(F)F)cc3C2)nn2cnnc2c1C (stereo not shown) [Compound 266, 3-((2,2-difluorocyclopropyl)methoxy)-6-(7,8-dimethyl-[1,2,4]triazolo[4,3-b]pyridazin-6-yl)-5,6,7,8-tetrahydro-1,6-naphthyridine] | 93 | 6.46 |
| Cc1c(N2CCc3ncc(N4CCCn5nccc54)cc3C2)nn2c(C(F)(F)F)nnc2c1C [Compound 267, 3-(6,7-dihydropyrazolo[1,5-a]pyrimidin-4(5H)-yl)-6-(7,8-dimethyl-3-(trifluoromethyl)-[1,2,4]triazolo[4,3-b]pyridazin-6-yl)-5,6,7,8-tetrahydro-1,6-naphthyridine] | 100 | 7.43 |
| Cc1c(N2CCc3ncc(C(F)(F)F)cc3C2)nn2c(Cl)nnc2c1C [Compound 268, 6-(3-Chloro-7,8-dimethyl-[1,2,4]triazolo[4,3-b]pyridazin-6-yl)-3-(trifluoromethyl)-7,8-dihydro-5H-1,6-naphthyridine] | 95 | 6.84 |
| Cc1c(N2Cc3cc(C(F)(F)F)cnc3C(C)(C)C2)nn2cnnc2c1C [Compound 269, 6-(7,8-Dimethyl-[1,2,4]triazolo[4,3-b]pyridazin-6-yl)-8,8-dimethyl-3-(trifluoromethyl)-5,6,7,8-tetrahydro-1,6-naphthyridine] | 42 | 5.78 |
| COc1nnc2c(C)c(C)c(N3CCc4ncc(C(F)(F)F)cc4C3)nn12 [Compound 270, 6-(3-Methoxy-7,8-dimethyl-[1,2,4]triazolo[4,3-b]pyridazin-6-yl)-3-(trifluoromethyl)-7,8-dihydro-5H-1,6-naphthyridine] | 97 | 6.77 |
| Cc1c(N2CCc3ncc(N4CCOCC4)cc3C2)nn2c(C(F)(F)F)nnc2c1C [Compound 271, 4-(6-(7,8-dimethyl-3-(trifluoromethyl)-[1,2,4]triazolo[4,3-b]pyridazin-6-yl)-5,6,7,8-tetrahydro-1,6-naphthyridin-3-yl)morpholine] | 89 | 6.58 |
| Cc1c(N2CCc3ncc(NC4CCCC4)cc3C2)nn2c(C(F)(F)F)nnc2c1C [Compound 272, N-cyclopentyl-6-(7,8-dimethyl-3-(trifluoromethyl)-[1,2,4]triazolo[4,3-b]pyridazin-6-yl)-5,6,7,8-tetrahydro-1,6-naphthyridin-3-amine] | 87 | 6.08 |
| Cc1c(N2CCc3ncc(N4CCC5OCCCC5C4)cc3C2)nn2c(C(F)(F)F)nnc2c1C (stereo not shown) [Compound 273, 6-(6-(7,8-dimethyl-3-(trifluoromethyl)-[1,2,4]triazolo[4,3-b]pyridazin-6-yl)-5,6,7,8-tetrahydro-1,6-naphthyridin-3-yl)octahydro-2H-pyrano[3,2-c]pyridine] | 83 | 6.09 |
| Cc1c(N2CCc3ncc(N4CCC5(CC4)COC5)cc3C2)nn2c(C(F)(F)F)nnc2c1C [Compound 274, 7-(6-(7,8-dimethyl-3-(trifluoromethyl)-[1,2,4]triazolo[4,3-b]pyridazin-6-yl)-5,6,7,8-tetrahydro-1,6-naphthyridin-3-yl)-2-oxa-7-azaspiro[3.5]nonane] | 65 | 5.48 |
| Cc1c(N2CCc3ncc(N4CCCC4)cc3C2)nn2c(C(F)(F)F)nnc2c1C [Compound 275, 6-(7,8-dimethyl-3-(trifluoromethyl)-[1,2,4]triazolo[4,3-b]pyridazin-6-yl)-3-(pyrrolidin-1-yl)-5,6,7,8-tetrahydro-1,6-naphthyridine] | 74 | 6.03 |
| Cc1c(N2CCc3ncc(N4CCN(C)CC4)cc3C2)nn2c(C(F)(F)F)nnc2c1C [Compound 276, 6-(7,8-dimethyl-3-(trifluoromethyl)-[1,2,4]triazolo[4,3-b]pyridazin-6-yl)-3-(4-methylpiperazin-1-yl)-5,6,7,8-tetrahydro-1,6-naphthyridine] | 65 | 5.71 |
| Cc1c(N2CCc3ncc(Oc4ccccc4F)cc3C2)nn2c(C(F)(F)F)nnc2c1C [Compound 277, 6-(7,8-dimethyl-3-(trifluoromethyl)-[1,2,4]triazolo[4,3-b]pyridazin-6-yl)-3-(2-fluorophenoxy)-5,6,7,8-tetrahydro-1,6-naphthyridine] | 85 | 6.41 |
| Cc1c(N2CCc3ncc(Oc4cccc(F)c4)cc3C2)nn2c(C(F)(F)F)nnc2c1C [Compound 278, 6-(7,8-dimethyl-3-(trifluoromethyl)-[1,2,4]triazolo[4,3-b]pyridazin-6-yl)-3-(3-fluorophenoxy)-5,6,7,8-tetrahydro-1,6-naphthyridine] | 84 | 6.08 |
| Cc1c(N2CCc3ncc(NC4CCOC4)cc3C2)nn2c(C(F)(F)F)nnc2c1C (stereo not shown) [Compound 279, 6-(7,8-dimethyl-3-(trifluoromethyl)-[1,2,4]triazolo[4,3-b]pyridazin-6-yl)-N-(tetrahydrofuran-3-yl)-5,6,7,8-tetrahydro-1,6-naphthyridin-3-amine] | 86 | 6.00 |
| Cc1c(N2CCc3ncc(N4CCC(F)(F)CC4)cc3C2)nn2c(C(F)(F)F)nnc2c1C [Compound 280, 3-(4,4-difluoropiperidin-1-yl)-6-(7,8-dimethyl-3-(trifluoromethyl)-[1,2,4]triazolo[4,3-b]pyridazin-6-yl)-5,6,7,8-tetrahydro-1,6-naphthyridine] | 85 | 6.16 |
| Cc1c(N2CCc3ncc(N4CCCCC4)cc3C2)nn2c(C(F)(F)F)nnc2c1C [Compound 281, 6-(7,8-dimethyl-3-(trifluoromethyl)-[1,2,4]triazolo[4,3-b]pyridazin-6-yl)-3-(piperidin-1-yl)-5,6,7,8-tetrahydro-1,6-naphthyridine] | 76 | 6.13 |
| Cc1c(N2CCc3ncc(N4CCOc5ncccc54)cc3C2)nn2c(C(F)(F)F)nnc2c1C [Compound 282, 1-(6-(7,8-dimethyl-3-(trifluoromethyl)-[1,2,4]triazolo[4,3-b]pyridazin-6-yl)-5,6,7,8-tetrahydro-1,6-naphthyridin-3-yl)-2,3-dihydro-1H-pyrido[2,3-b][1,4]oxazine] | 87 | 7.19 |
| Cc1c(N2CCc3nnc(Cl)cc3C2)nn2c(C(F)(F)F)nnc2c1C [Compound 283, 3-chloro-6-(7,8-dimethyl-3-(trifluoromethyl)-[1,2,4]triazolo[4,3-b]pyridazin-6-yl)-5,6,7,8-tetrahydropyrido[4,3-c]pyridazine] | 89 | 5.66 |
